Results as given in patent US20230265089A1, “QUINOLINE DERIVATIVES, PHARMACEUTICALLY ACCEPTABLE SALTS, AND METHODS OF USE THEREOF” (vTv Therapeutics LLC, priority 2020, published 2023).

Target: T1, PDE4D7 (Homo sapiens, UniProt Q08499)
T1 construct: purchased BPS BioSciences 60708
Assay: PDE4D7 TR-FRET assay
Type: biochemical
Conditions: TR-FRET assay kit, FAM-cAMP substrate
Text: According to BPS Biosciences product information, the PDE4D7 TR-FRET assay is designed for identification of inhibitors of PDE4D7 using TR-FRET (Time Resolved Fluorescence Resonance Energy Transfer) technology. The assay is based on the generation of FAM-labeled nucleotide monophosphates by the phosphodiesterase. These phosphate groups bind to terbium-labeled nanoparticles, resulting in energy transfer from the terbium to the FAM, which emits a fluorescent signal at 520 nm. The change in fluorescent intensity can be easily measured using a fluorescence plate reader.
The general assay protocol for PDE4D7 TR-FRET assay used to obtain the experimental data described below includes two steps: First, the fluorescent-labeled cAMP is incubated with a sample containing PDE4D7 for 1 hour. Second, a binding agent and a terbium donor are added to the reaction mix and incubated for 1 hour. Then, fluorescence intensity can be measured using a fluorescence reader. A detailed protocol is as follows
Step 1: Dilute 20 μM FAM-Cyclic-3′,5′-AMP substrate stock solution 100-fold with PDE buffer to make a 200 nM solution. Make only a sufficient quantity needed for the assay; store remaining stock solution in aliquots at −20° C. Add 25 μl of FAM-Cyclic-3′,5′-AMP (200 nM) to each well designated “Substrate Control”, “Positive Control”, and “Test Inhibitor”. Add 25 μl of PDE assay buffer to each well designated “Tb-only Control”. Add 5 μl of inhibitor solution to each well designated “Test Inhibitor”. Add 5 μl of the same solution without inhibitor (inhibitor buffer) to the “Tb-only Control”, “Substrate Control” and “Positive Control”. Thaw PDE4D7 on ice. Upon first thaw, briefly spin tube containing enzyme to recover the full contents of the tube. […]
Step 2: Make binding dilution buffer by mixing equal volumes of Binding buffer A and Binding buffer B. For example, mix 1 ml Binding buffer A with 1 ml Binding buffer B. Mix binding agent thoroughly and dilute binding agent 1:50 with binding dilution buffer made in Step 1. […] Read the fluorescent intensity in a microtiter-plate reader capable of TR-FRET.

T1 sequence (Q08499 1-748 isoform Q08499-11): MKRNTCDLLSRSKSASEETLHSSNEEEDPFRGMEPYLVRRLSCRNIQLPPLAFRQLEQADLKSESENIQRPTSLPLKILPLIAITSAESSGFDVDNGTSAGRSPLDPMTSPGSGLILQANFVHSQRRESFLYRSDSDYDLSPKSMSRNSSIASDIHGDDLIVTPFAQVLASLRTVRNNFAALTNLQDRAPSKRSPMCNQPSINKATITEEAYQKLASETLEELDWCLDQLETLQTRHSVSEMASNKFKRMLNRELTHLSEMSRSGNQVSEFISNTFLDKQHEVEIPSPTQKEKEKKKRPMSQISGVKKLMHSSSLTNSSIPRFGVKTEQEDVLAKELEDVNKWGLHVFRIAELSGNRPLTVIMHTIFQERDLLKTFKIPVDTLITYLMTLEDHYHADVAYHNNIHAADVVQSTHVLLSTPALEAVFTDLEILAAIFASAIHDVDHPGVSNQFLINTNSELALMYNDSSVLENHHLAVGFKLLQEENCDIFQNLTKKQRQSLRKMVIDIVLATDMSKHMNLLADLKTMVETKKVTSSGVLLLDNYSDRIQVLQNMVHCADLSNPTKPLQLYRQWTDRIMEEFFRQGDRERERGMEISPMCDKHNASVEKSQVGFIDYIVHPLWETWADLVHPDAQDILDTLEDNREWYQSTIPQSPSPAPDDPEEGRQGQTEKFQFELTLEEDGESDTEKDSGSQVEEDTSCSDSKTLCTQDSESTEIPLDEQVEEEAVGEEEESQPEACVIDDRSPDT

Point of comparison: `COc1cccc2c1ncc1c(=O)n([C@H]3CC[C@H](C(=O)O)CC3)c(=O)n(-c3cccc(Cl)c3)c12` [COMPOUND I * HCI (Batch 3), trans-4-[1-(3-chlorophenyl)-7-methoxy-2,4-dioxo-pyrimido[5,4-c]quinolin-3-yl]cyclohexanecarboxylic acid], IC50 1.1 nM. Against it:
- COc1cccc2c1ncc1c(=O)n([C@H]3CC[C@H](C(=O)O)CC3)c(=O)n(-c3cccc(Cl)c3)c12 [COMPOUND I * HCI (Batch 1), trans-4-[1-(3-chlorophenyl)-7-methoxy-2,4-dioxo-pyrimido[5,4-c]quinolin-3-yl]cyclohexanecarboxylic acid] — within 1.5-fold, 1.5 nM
- COc1cccc2c1ncc1c(=O)n([C@H]3CC[C@H](C(=O)O)CC3)c(=O)n(-c3cccc(Cl)c3)c12 [COMPOUND I * HCI (Batch 2), trans-4-[1-(3-chlorophenyl)-7-methoxy-2,4-dioxo-pyrimido[5,4-c]quinolin-3-yl]cyclohexanecarboxylic acid] — 3-fold higher, 3.3 nM
